Source: patent publication US20240018123A1, “COMPOUND FOR INHIBITING OR DISINTEGRATING ANDROGEN RECEPTOR, AND PHARMACEUTICAL USE THEREOF” (KOREA RESEARCH INSTITUTE OF CHEMICAL TECHNOLOGY, priority 2020, published 2024)
Like-named read-outs stand apart in the source and are kept apart here.

Assays:
Androgen receptor (AR) = biological target: T1, Androgen receptor (AR) (Homo sapiens, UniProt P10275, T878A); test: Assessment of AR proteolytic activity (Western blotting of LNCap cell lysates); assay type: cell-based; conditions: 24 hours of treatment, Western blotting quantified with Image J; for remaining activity at 1 µM: read-out: Degradation (1 μM treated in LNCaP, % AR remaining)
T1 construct: 5.5×10^5 LNCap cells were injected into each well of a 6-well plate; endogenous in cells; host or cells: LNCaP
T1 sequence (P10275 1-920 T878A): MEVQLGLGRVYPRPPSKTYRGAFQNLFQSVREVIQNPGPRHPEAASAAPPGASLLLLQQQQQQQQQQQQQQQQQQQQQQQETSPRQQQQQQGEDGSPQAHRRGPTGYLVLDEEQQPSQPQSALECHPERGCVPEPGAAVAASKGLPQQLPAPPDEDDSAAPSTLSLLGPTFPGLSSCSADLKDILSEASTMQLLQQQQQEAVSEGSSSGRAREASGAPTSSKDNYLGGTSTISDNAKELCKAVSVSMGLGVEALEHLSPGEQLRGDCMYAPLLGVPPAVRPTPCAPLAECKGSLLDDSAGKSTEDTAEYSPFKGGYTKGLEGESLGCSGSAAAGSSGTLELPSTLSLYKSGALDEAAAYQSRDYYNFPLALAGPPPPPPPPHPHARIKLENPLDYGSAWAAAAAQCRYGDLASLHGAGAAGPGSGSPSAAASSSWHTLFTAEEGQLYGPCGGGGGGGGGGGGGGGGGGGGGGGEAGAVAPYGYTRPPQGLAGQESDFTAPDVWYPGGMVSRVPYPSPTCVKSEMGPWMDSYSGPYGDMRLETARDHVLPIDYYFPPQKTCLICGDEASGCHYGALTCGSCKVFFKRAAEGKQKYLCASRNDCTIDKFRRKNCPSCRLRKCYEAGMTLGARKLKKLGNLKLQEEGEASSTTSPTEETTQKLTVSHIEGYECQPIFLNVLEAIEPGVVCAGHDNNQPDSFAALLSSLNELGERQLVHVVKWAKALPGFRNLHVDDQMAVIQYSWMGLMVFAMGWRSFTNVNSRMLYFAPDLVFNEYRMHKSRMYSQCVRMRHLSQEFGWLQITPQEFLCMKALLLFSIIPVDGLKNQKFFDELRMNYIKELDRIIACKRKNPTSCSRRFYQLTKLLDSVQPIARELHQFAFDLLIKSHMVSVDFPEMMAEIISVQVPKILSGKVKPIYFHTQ
Procedure, shortened: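 LNCap cells seeded at 5.5×10^5 per well and treated with compound for 24 hours. Lysates prepared in RIPA buffer (pH 7.5, with protease inhibitors). AR protein levels assessed by Western blot with densitometric quantification.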

LNCaP cells [1] = tested on: LNCaP cells
Method: (§1) In order to evaluate the androgen receptor (AR) cytotoxicity of the compounds according to the present invention, the following experiment was conducted. Specifically, 1.5×10^3 (LNCaP) or 4×10^3 (VCaP, 22RV1), respectively, of LNCaP, VCaP, and 22RV1 cells were injected into each well of a 96-well plate. The next day, each well was treated with the compound at a final concentration of 3 nM, 10 nM, 30 nM, 100 nM, 300 nM, 1 μM, 3 μM, and 10 μM. […] After 6 days of treatment, Cell-titer-glo (promega) was treated and reacted for 10 minutes, and cell viability was measured with a multimode plate reader (PerkinElmer, Inc.), and the change was quantified compared to when DMSO was treated.

LNCaP cells [2] = test: Cytotoxicity assessment (Cell-titer-glo cell viability), LNCaP
Method: as §1

VCaP cells = test: Cytotoxicity assessment (Cell-titer-glo cell viability), VCaP
Method: as §1

[3] = read-out: LNCAP (CC50), LNCaP cells, 6 days of treatment, Cell-titer-glo, vs DMSO
[4] = read-out: VCaP (CC50), VCaP cells, 6 days of treatment, Cell-titer-glo, vs DMSO
[5] = Homo sapiens, LNCaP, 144 h, read-out: LNCAP (CC50, μM)
[6] = Homo sapiens, VCaP, 144 h, read-out: VCaP (CC50, μM)

How did the “Degradation (1 μM treated in LNCaP, % AR remaining)” value (Androgen receptor (AR)) turn out when `CC1(C)C(NC(=O)c2ccc(OCCOCCOCCOCCOCCOCCCCNc3cccc4nnn(C5CCC(=O)NC5=O)c(=O)c34)cc2)C(C)(C)C1Oc1ccc(C#N)c(Cl)c1` (stereo not shown) [Example 5, N-((1r,3r)-3-(3-chloro-4-cyanophenoxy)-2,2,4,4-tetramethylcyclobutyl)-4-((19-((3-(2,6-dioxopiperidin-3-yl)-4-oxo-3,4-dihydrobenzo[d][1,2,3]triazin-5-yl)amino)-3,6,9,12,15-pentaoxanonadecyl)oxy)benzamide] was run?
Its value is 6%.

What about the CC50 (LNCaP cells [1]) of the same compound?
Its CC50 is 1600 nM.

Which results are given for `CC1(C)C(NC(=O)c2ccc(OCCOCCOCCOCCOCCNc3cccc4nnn(C5CCC(=O)NC5=O)c(=O)c34)cc2)C(C)(C)C1Oc1ccc(C#N)c(Cl)c1` (stereo not shown) [Example 2, N-((1r,3r)-3-(3-chloro-4-cyanophenoxy)-2,2,4,4-tetramethylcyclobutyl)-4-((14-((3-(2,6-dioxopiperidin-3-yl)-4-oxo-3,4-dihydrobenzo[d][1,2,3]triazin-5-yl)amino)-3,6,9,12-tetraoxatetradecyl)oxy)benzamide]?
Degradation (1 μM treated in LNCaP, % AR remaining) (Androgen receptor (AR)): 100%; CC50 (LNCaP cells [1]): 4930 nM

What does the source list for `CC1(C)[C@H](NC(=O)c2ccc(N3CCN(CCC4CCN(C(=O)C5CCN(c6ccc7nnn(C8CCC(=O)NC8=O)c(=O)c7c6)CC5)CC4)CC3)cc2)C(C)(C)[C@H]1Oc1ccc(C#N)c(Cl)c1` (stereo partly shown) [Example 26, N-((1r,3r)-3-(3-chloro-4-cyanophenoxy)-2,2,4,4-tetramethylcyclobutyl)-4-(4-(2-(1-(1-(3-(2,6-dioxopiperidin-3-yl)-4-oxo-3,4-dihydrobenzo[d][1,2,3]triazin-6-yl)piperidine-4-carbonyl)piperidin-4-yl)ethyl)piperazin-1-yl)benzamide]?
CC50 (LNCaP cells [2]; [3]): 0.361 µM; Degradation (1 μM treated in LNCaP, % AR remaining) (Androgen receptor (AR)): 7%; CC50 (VCaP cells; [4]): 0.0516 µM

`CC1(C)[C@H](NC(=O)c2ccc(N3CCN(CCOC4CCN(c5ccc6nnn(C7CCC(=O)NC7=O)c(=O)c6c5)CC4)CC3)cc2)C(C)(C)[C@H]1Oc1ccc(C#N)c(Cl)c1` (stereo partly shown) [Example 34, N-((1r,3r)-3-(3-chloro-4-cyanophenoxy)-2,2,4,4-tetramethylcyclobutyl)-4-(4-(2-((1-(3-(2,6-dioxopiperidin-3-yl)-4-oxo-3,4-dihydrobenzo[d][1,2,3]triazin-6-yl)piperidin-4-yl)oxy)ethyl)piperazin-1-yl)benzamide] was tested. Which CC50 (LNCaP cells [2]; [5]) did it give?
Its CC50 is 0.523 µM.

What about the remaining activity at 1 µM (Androgen receptor (AR)) of the same compound?
Its remaining activity at 1 µM is 11%.

And the CC50 (VCaP cells; [6])?
The CC50 was 0.0702 µM.

`CC1(C)[C@H](NC(=O)c2ccc(N3CCN(C4CC5(CCN(C(=O)C6CCN(c7ccc8nnn(C9CCC(=O)NC9=O)c(=O)c8c7)CC6)CC5)C4)CC3)cc2)C(C)(C)[C@H]1Oc1ccc(C#N)c(Cl)c1` (stereo partly shown) [Example 20, N-((1r,3r)-3-(3-chloro-4-cyanophenoxy)-2,2,4,4-tetramethylcyclobutyl)-4-(4-(7-(1-(3-(2,6-dioxopiperidin-3-yl)-4-oxo-3,4-dihydrobenzo[d][1,2,3]triazin-6-yl)piperidine-4-carbonyl)-7-azaspiro[3.5]nonan-2-yl)piperazin-1-yl)benzamide] was tested. Which CC50 (LNCaP cells [2]; [3]) did it give?
The CC50 was 0.178 µM.

And the “Degradation (1 μM treated in LNCaP, % AR remaining)” value (Androgen receptor (AR))?
The value was 26%.

What about the CC50 (VCaP cells; [4]) of the same compound?
The CC50 was 0.0542 µM.

How did the CC50 (LNCaP cells [2]; [5]) turn out when `CC1(C)[C@H](NC(=O)c2ccc(N3CCN(CC4CCN(c5ccc6nnn(C7CCC(=O)NC7=O)c(=O)c6c5)CC4)CC3)cc2)C(C)(C)[C@H]1Oc1ccc(C#N)c(Cl)c1` (stereo partly shown) [Example 8, N-((1r,3r)-3-(3-chloro-4-cyanophenoxy)-2,2,4,4-tetramethylcyclobutyl)-4-(4-((1-(3-(2,6-dioxopiperidin-3-yl)-4-oxo-3,4-dihydrobenzo[d][1,2,3]triazin-6-yl)piperidin-4-yl)methyl)piperazin-1-yl)benzamide] was run?
Its CC50 is 0.163 µM.

And the remaining activity at 1 µM (Androgen receptor (AR))?
The remaining activity at 1 µM was 8.1%.

What about the CC50 (VCaP cells; [6]) of the same compound?
The CC50 was 0.685 µM.

Which results are given for `CC1(C)[C@H](NC(=O)c2ccc(N3CCN(CC4CCN(C(=O)C5CCN(c6ccc7nnn(C8CCC(=O)NC8=O)c(=O)c7c6)CC5)CC4)CC3)cc2)C(C)(C)[C@H]1Oc1ccc(C#N)c(Cl)c1` (stereo partly shown) [Example 10, N-((1r,3r)-3-(3-chloro-4-cyanophenoxy)-2,2,4,4-tetramethylcyclobutyl)-4-(4-((1-(1-(3-(2,6-dioxopiperidin-3-yl)-4-oxo-3,4-dihydrobenzo[d][1,2,3]triazin-6-yl)piperidine-4-carbonyl)piperidin-4-yl)methyl)piperazin-1-yl)benzamide]?
CC50 (LNCaP cells [2]; [3]): 0.19 µM; Degradation (1 μM treated in LNCaP, % AR remaining) (Androgen receptor (AR)): 12.5%; CC50 (VCaP cells; [4]): 0.257 µM

For `CC1(C)[C@H](NC(=O)c2ccc(N3CCN(C4CC5(CCN(C(=O)CNc6ccc7nnn(C8CCC(=O)NC8=O)c(=O)c7c6)CC5)C4)CC3)cc2)C(C)(C)[C@H]1Oc1ccc(C#N)c(Cl)c1` (stereo partly shown) [Example 19, N-((1r,3r)-3-(3-chloro-4-cyanophenoxy)-2,2,4,4-tetramethylcyclobutyl)-4-(4-(7-((3-(2,6-dioxopiperidin-3-yl)-4-oxo-3,4-dihydrobenzo[d][1,2,3]triazin-6-yl)glycyl)-7-azaspiro[3.5]nonan-2-yl)piperazin-1-yl)benzamide], which CC50 (LNCaP cells [2]; [3]) is on record?
The CC50 was 0.208 µM.

What about the “Degradation (1 μM treated in LNCaP, % AR remaining)” value (Androgen receptor (AR)) of the same compound?
The value was 23%.

What about the CC50 (VCaP cells; [4]) of the same compound?
The CC50 was 0.0763 µM.

Which CC50 (LNCaP cells [2]; [5]) does the source give for `CC1(C)[C@H](NC(=O)c2ccc(N3CCN(CCOC4CCN(C(=O)CNc5ccc6nnn(C7CCC(=O)NC7=O)c(=O)c6c5)CC4)CC3)cc2)C(C)(C)[C@H]1Oc1ccc(C#N)c(Cl)c1` (stereo partly shown) [Example 31, N-((1r,3r)-3-(3-chloro-4-cyanophenoxy)-2,2,4,4-tetramethylcyclobutyl)-4-(4-(2-((1-((3-(2,6-dioxopiperidin-3-yl)-4-oxo-3,4-dihydrobenzo[d][1,2,3]triazin-6-yl)glycyl)piperidin-4-yl)oxy)ethyl)piperazin-1-yl)benzamide] here?
Its CC50 is 0.852 µM.

And the remaining activity at 1 µM (Androgen receptor (AR))?
The remaining activity at 1 µM was 5%.

What about the CC50 (VCaP cells; [6]) of the same compound?
The CC50 was 0.0571 µM.

How did the CC50 (LNCaP cells [2]; [5]) turn out when `CC1(C)[C@H](NC(=O)c2ccc(N3CCN(CCOC4CCN(C(=O)COc5ccc6nnn(C7CCC(=O)NC7=O)c(=O)c6c5)CC4)CC3)cc2)C(C)(C)[C@H]1Oc1ccc(C#N)c(Cl)c1` (stereo partly shown) [Example 32, N-((1r,3r)-3-(3-chloro-4-cyanophenoxy)-2,2,4,4-tetramethylcyclobutyl)-4-(4-(2-((1-(2-((3-(2,6-dioxopiperidin-3-yl)-4-oxo-3,4-dihydrobenzo[d][1,2,3]triazin-6-yl)oxy)acetyl)piperidin-4-yl)oxy)ethyl)piperazin-1-yl)benzamide] was run?
The CC50 was 1.3 µM.

And the remaining activity at 1 µM (Androgen receptor (AR))?
Its remaining activity at 1 µM is 2%.

And the CC50 (VCaP cells; [6])?
Its CC50 is 0.141 µM.

With `CC1(C)[C@H](NC(=O)c2ccc(N3CCN(C4CC5(CCN(c6ccc7nnn(C8CCC(=O)NC8=O)c(=O)c7c6)CC5)C4)CC3)cc2)C(C)(C)[C@H]1Oc1ccc(C#N)c(Cl)c1` (stereo partly shown) [Example 23, N-((1r,3r)-3-(3-chloro-4-cyanophenoxy)-2,2,4,4-tetramethylcyclobutyl)-4-(4-(7-(3-(2,6-dioxopiperidin-3-yl)-4-oxo-3,4-dihydrobenzo[d][1,2,3]triazin-6-yl)-7-azaspiro[3.5]nonan-2-yl)piperazin-1-yl)benzamide] as the compound, how does the CC50 (LNCaP cells [2]; [3]) read?
Its CC50 is 0.302 µM.

And the “Degradation (1 μM treated in LNCaP, % AR remaining)” value (Androgen receptor (AR))?
Its value is 5%.

What about the CC50 (VCaP cells; [4]) of the same compound?
The CC50 was 0.191 µM.

What does the source list for “N-((1r,3r)-3-(3-chloro-4-cyanophenoxy)-2,2,4,4-tetramethylcyclobutyl)-4-(4-(2-((1-(1-(3-(2,6-dioxopiperidin-3-yl)-4-oxo-3,4-dihydrobenzo[d][1,2,3]triazin-6-yl)azetidine-3-carbonyl)piperidin-4-yl)oxy)ethyl)piperazin-1-yl)benzamide [Example 33]”?
CC50 (LNCaP cells [2]; [3]): 0.762 µM; Degradation (1 μM treated in LNCaP, % AR remaining) (Androgen receptor (AR)): 14%; CC50 (VCaP cells; [4]): 0.057 µM
